Laboratory results reported in ChEMBL document CHEMBL1201862, “PubChem BioAssay data set” (2004).
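Briefly, cells in 96-well plates were exposed to five compound concentrations for 48 h, and endpoints were estimated by linear interpolation. Here, GI50 denotes the concentration required for 50% inhibition of growth.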 Activity calls are given as the source filed them. Rule as the data show it: active = GI50 up to about 1.1 µM and inactive = higher.

Columns and labels:
Test in all cases: DTP human tumour cell line panel, 48 h
[1] = system: K562
[2] = system: 786-0
[3] = system: HCT-116
[4] = system: SF-539
[5] = system: UO-31
[6] = system: RPMI-8226
[7] = system: HCT-15
[8] = system: HL-60
[9] = system: UACC-257
[10] = system: MDA-MB-231
[11] = system: EKVX
[12] = system: COLO 205
[13] = system: Hs-578T
[14] = system: KM12
[15] = system: MDA-N
[16] = system: HOP-62
[17] = system: UACC-62
[18] = system: Malme-3M
[19] = system: LOX IMVI
[20] = system: HCC 2998
[21] = system: MOLT-4
[22] = system: MCF7
[23] = system: MDA-MB-435
[24] = system: M14
[25] = system: SW-620
[26] = system: SR
[27] = system: SN12C
[28] = system: RXF 393
[29] = system: OVCAR-4
[30] = system: U-251
[31] = system: HT-29
[32] = system: ACHN
[33] = system: SF-268
[34] = system: HOP-92
[35] = system: TK-10
[36] = system: SK-OV-3
[37] = system: CCRF-CEM
[38] = system: DU-145
[39] = system: NCI-H460
[40] = system: NCI/ADR-RES
[41] = system: CAKI-1
[42] = system: NCI-H226
[43] = system: PC-3
[44] = system: SK-MEL-2
[45] = system: SK-MEL-28
[46] = system: NCI-H23
[47] = system: A498
[48] = system: OVCAR-5
[49] = system: SNB-19
[50] = system: SK-MEL-5
[51] = system: OVCAR-3
[52] = system: A549
[53] = system: T47D
[54] = system: SF-295
[55] = system: SNB-75
[56] = system: NCI-H522
[57] = system: OVCAR-8
[58] = system: IGROV-1

Measured: GI50

Cc1ccc2nc(SCC(=O)N/N=C3\C(=O)Nc4ccccc43)n(-c3ccccc3)c(=O)c2c1
inactive: [1] 23.7 µM | [2] 16 µM | [3] 15.1 µM | [4] 5.7 µM | [5] 2.02 µM | [6] 17.6 µM | [8] 25.5 µM | [9] 24 µM | [10] 10.9 µM | [11] 15.6 µM | [12] 13.4 µM | [13] 17.8 µM | [14] 13.6 µM | [15] 19 µM | [16] 12.2 µM | [17] 16.9 µM | [18] 20.2 µM | [19] 15.6 µM | [20] 14.8 µM | [21] 17.6 µM | [22] 16.1 µM | [23] 16.5 µM | [24] 16.3 µM | [25] 23.6 µM | [26] 19.5 µM | [27] 15.7 µM | [28] 14.1 µM | [29] 13.2 µM | [30] 12.3 µM | [31] 19.4 µM | [32] 13.8 µM | [33] 13.7 µM | [34] 14.3 µM | [35] 15.5 µM | [36] 13.8 µM | [37] 18.4 µM | [38] 13.4 µM | [39] 15.6 µM | [40] 13.3 µM | [41] 18.6 µM | [42] 16.2 µM | [43] 17.1 µM | [44] 1.69 µM | [45] 15.4 µM | [46] 16.4 µM | [47] 14.9 µM | [48] 15.8 µM | [49] 17.5 µM | [50] 15.7 µM | [51] 18.8 µM | [52] 15.2 µM | [53] 15.5 µM | [54] 15.8 µM
17.2 µM: [7]

Cc1ccc2c(c1)C(=O)C1(C2)Cc2cccc(C)c2C1=O (stereo unspecified)
> 100 µM: [7]
inactive: [1] > 100 µM | [55] > 100 µM | [2] > 100 µM | [3] > 100 µM | [4] > 100 µM | [5] 4.41 µM | [6] > 100 µM | [8] > 100 µM | [9] > 100 µM | [10] > 100 µM | [11] > 100 µM | [12] > 100 µM | [13] > 100 µM | [14] > 100 µM | [15] > 100 µM | [16] 88.9 µM | [56] > 100 µM | [17] 77.3 µM | [18] > 100 µM | [19] > 100 µM | [20] > 100 µM | [21] > 100 µM | [22] > 100 µM | [57] > 100 µM | [23] > 100 µM | [24] > 100 µM | [25] > 100 µM | [26] > 100 µM | [27] > 100 µM | [28] > 100 µM | [29] > 100 µM | [30] > 100 µM | [31] > 100 µM | [32] > 100 µM | [58] > 100 µM | [33] > 100 µM | [34] 55 µM | [35] > 100 µM | [36] > 100 µM | [37] > 100 µM | [38] > 100 µM | [39] > 100 µM | [40] > 100 µM | [42] > 100 µM | [43] > 100 µM | [45] > 100 µM | [46] > 100 µM | [47] > 100 µM | [48] > 100 µM | [49] 35.2 µM | [50] > 100 µM | [51] > 100 µM | [52] > 100 µM | [53] > 100 µM | [54] > 100 µM
active: [41] 0.0418 µM
